Experimental data: ChEMBL document CHEMBL4118129, “Evaluation of novel TGR5 agonist in combination with Sitagliptin for possible treatment of type 2 diabetes” (Bioorg Med Chem Lett, 2018)

Legend:
Type in all cases: ADME, organism-based
[1] = Tmax in C57BL/6 mouse at 30 mg/kg, po by LC-MS/MS analysis; details: in vivo
[2] = Cmax in C57BL/6 mouse at 30 mg/kg, po by LC-MS/MS analysis; design: dose 30 mg/kg, route oral; details: in vivo
[3] = AUC in C57BL/6 mouse at 30 mg/kg, po by LC-MS/MS analysis; details: in vivo
[4] = Terminal half life in C57BL/6 mouse at 30 mg/kg, po by LC-MS/MS analysis; details: in vivo, read-out: beta t1/2 (converted)

## COc1ccc(C(C)(C)c2cnc(SCCOCc3ccc(C#N)cc3)n2-c2ccc(F)cc2)cc1OC
[1]
  Tmax: 12 min
[2]
  Cmax: 2100 nM
[3]
  AUC: 2.5 µM·h
[4]
  half-life: 60 min
